Among the data in patent US9346809B2 (LEO PHARMA A/S, priority 2009, dated 2016) are EC50 values, retold here.

What all share (type): biochemical
Assay [1] addresses T1, JAK3 (catalytic domain, His-tag) (Homo sapiens, UniProt P52333).
T1 construct: All four purified enzymes contain only the catalytic domain; His (N); purchased Carna Biosciences, Inc; host or cells: baculovirus expression system
The assay is described as follows: JAK kinase assay (HTRF, phosphorylation of TK substrate-biotin), JAK3. Conditions: ATP at Km (2 μM). In a few lines:
(§1)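 Baculovirus-expressed catalytic domains phosphorylated 1 μM TK substrate-biotin in 50 mM Hepes pH 7.0 with ATP at Km (JAK1 7 μM, JAK2 4 μM, JAK3 2 μM, TYK2 13 μM) for 20-30 min at RT. EDTA/KF stop, streptavidin-XL665 plus cryptate antibody overnight; HTRF signal gave EC50.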

The target of assay [2] is T2, JAK1 (aa 850-1154, catalytic domain, GST-tag) (Homo sapiens, UniProt P23458).
T2 construct: JAK1 (aa 850-1154) and TYK2 (aa 871-1187) are expressed with an N-terminally fused GST-tag; GST (N); purchased Carna Biosciences, Inc; host or cells: baculovirus expression system
T2 sequence (P23458 850-1154): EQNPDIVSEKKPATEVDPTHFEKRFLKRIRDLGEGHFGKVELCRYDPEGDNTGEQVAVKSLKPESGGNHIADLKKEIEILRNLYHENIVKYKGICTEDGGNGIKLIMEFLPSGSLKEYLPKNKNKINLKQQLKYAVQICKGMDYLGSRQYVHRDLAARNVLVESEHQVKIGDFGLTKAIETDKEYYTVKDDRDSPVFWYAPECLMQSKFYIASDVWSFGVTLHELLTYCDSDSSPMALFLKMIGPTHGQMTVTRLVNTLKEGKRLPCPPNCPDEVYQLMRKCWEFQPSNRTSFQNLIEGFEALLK
The assay is described as follows: JAK kinase assay (HTRF, phosphorylation of TK substrate-biotin), JAK1. Conditions: ATP at Km (7 μM). In a few lines:
as §1
Background: TR-FRET usually uses a lanthanide donor and a delayed reading to cut background.

The target of assay [3] is T3, TYK2 (aa 871-1187, catalytic domain, GST-tag) (Homo sapiens, UniProt P29597).
T3 construct: JAK1 (aa 850-1154) and TYK2 (aa 871-1187) are expressed with an N-terminally fused GST-tag; GST (N); purchased Carna Biosciences, Inc; host or cells: baculovirus expression system
T3 sequence (P29597 871-1187): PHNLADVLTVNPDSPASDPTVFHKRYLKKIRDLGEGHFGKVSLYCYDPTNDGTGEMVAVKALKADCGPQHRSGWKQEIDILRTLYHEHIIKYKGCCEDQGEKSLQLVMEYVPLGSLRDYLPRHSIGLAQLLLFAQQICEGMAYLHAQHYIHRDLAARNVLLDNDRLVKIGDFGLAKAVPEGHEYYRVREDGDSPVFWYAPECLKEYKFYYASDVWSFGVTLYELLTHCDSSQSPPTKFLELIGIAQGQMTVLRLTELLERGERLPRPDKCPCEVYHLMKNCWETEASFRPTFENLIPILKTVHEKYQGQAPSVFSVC
The assay is described as follows: JAK kinase assay (HTRF, phosphorylation of TK substrate-biotin), TYK2. Conditions: ATP at Km (13 μM). In a few lines: as §1

The target in assay [4] is T4, JAK2 (catalytic domain, His-tag) (Homo sapiens, UniProt O60674).
T4 construct: All four purified enzymes contain only the catalytic domain; His (N); purchased Carna Biosciences, Inc; host or cells: baculovirus expression system
T4 sequence (O60674 849-1124 limits assumed): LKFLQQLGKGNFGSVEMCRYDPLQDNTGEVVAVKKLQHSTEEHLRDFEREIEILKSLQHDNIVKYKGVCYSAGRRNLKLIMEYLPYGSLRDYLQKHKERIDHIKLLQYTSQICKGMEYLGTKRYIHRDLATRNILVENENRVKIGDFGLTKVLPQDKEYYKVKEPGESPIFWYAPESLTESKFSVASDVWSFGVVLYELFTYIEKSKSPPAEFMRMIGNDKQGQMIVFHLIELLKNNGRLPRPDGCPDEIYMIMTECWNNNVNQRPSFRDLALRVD
The assay is described as follows: JAK kinase assay (HTRF, phosphorylation of TK substrate-biotin), JAK2. Conditions: ATP at Km (4 μM). In short, it runs like this:
as §1

Where [5] appears, read: HTRF assay, read-out: JAK3 kinase inhibitory activity (EC50).
The mark [6] stands for this setting: HTRF assay, read-out: JAK1 kinase inhibitory activity (EC50).
The mark [7] stands for this setting: HTRF assay, read-out: TYK2 kinase inhibitory activity (EC50).
[8] abbreviates: HTRF assay, read-out: JAK2 kinase inhibitory activity (EC50).
[9] abbreviates: HTRF assay, read-out: JAK3 kinase inhibitory activity (EC50 indicator).
Where [10] appears, read: HTRF assay, read-out: JAK1 kinase inhibitory activity (EC50 indicator).
The mark [11] stands for this setting: HTRF assay, read-out: TYK2 kinase inhibitory activity (EC50 indicator).
The mark [12] stands for this setting: HTRF assay, read-out: JAK2 kinase inhibitory activity (EC50 indicator).
The mark [13] stands for this setting: read-out: JAK3 kinase inhibitory activity (EC50 indicator).
Where [14] appears, read: read-out: JAK1 kinase inhibitory activity (EC50 indicator).
The mark [15] stands for this setting: read-out: TYK2 kinase inhibitory activity (EC50 indicator).
[16] abbreviates: read-out: JAK2 kinase inhibitory activity (EC50 indicator).

Each structure is given as a SMILES string. Like-named read-outs stand apart in the source and are kept apart here. Where only a bound is given, the exact number is not on record here.

T1 sequence (P52333 822-1111 limits assumed): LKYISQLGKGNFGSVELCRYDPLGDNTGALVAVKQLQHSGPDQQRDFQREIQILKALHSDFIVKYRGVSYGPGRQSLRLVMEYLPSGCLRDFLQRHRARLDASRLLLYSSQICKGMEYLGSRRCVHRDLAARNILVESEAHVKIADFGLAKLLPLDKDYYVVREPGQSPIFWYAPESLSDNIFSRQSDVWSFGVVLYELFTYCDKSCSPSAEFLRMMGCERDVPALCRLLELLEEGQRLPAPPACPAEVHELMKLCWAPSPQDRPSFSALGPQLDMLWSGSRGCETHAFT

As a reminder, the EC50 is the midpoint of the concentration-response curve. `S=C(NC1CCCCC1)N1CCN(c2ncnc3[nH]ccc23)CC12CC2` [Example 437, 7-(7H-Pyrrolo[2,3-d]pyrimidin-4-yl)-4,7-diaza-spiro[2.5]octane-4-carbothioic acid cyclohexylamide]: the concentration for a half-maximal effect (EC50) was over 500 nM in assay [1] (setting [5]), over 500 nM in assay [2] (setting [6]), over 500 nM in assay [3] (setting [7]) and 100 to 500 nM in assay [4] (setting [8]).
Turning to `Cc1cnc(C(=O)N2CCN(c3ncnc4[nH]ccc34)CC23CC3)cn1` [Example 414, (5-Methyl-pyrazin-2-yl)-[7-(7H-pyrrolo[2,3-d]pyrimidin-4-yl)-4,7-diaza-spiro[2.5]oct-4-yl]-methanone], the EC50 is under 100 nM in assay [1] (setting [9]), under 100 nM in assay [2] (setting [10]), 100 to 500 nM in assay [3] (setting [11]) and under 100 nM in assay [4] (setting [12]).
As to `N#CCCCC(=O)N1CCN(c2nc(N)nc3[nH]ccc23)CC12CC2` [Example 310, 5-[7-(2-Amino-7H-pyrrolo[2,3-d]pyrimidin-4-yl)-4,7-diaza-spiro[2.5]oct-4-yl]-5-oxo-pentanenitrile], the concentration for a half-maximal effect (EC50) in assay [1] (setting [9]) is under 100 nM; in assay [2] (setting [10]) it was under 100 nM; in assay [3] (setting [11]), over 500 nM; in assay [4] (setting [12]), under 100 nM.
`O=C(C(=O)N1CCN(c2ncnc3[nH]ccc23)CC12CC2)c1cccs1` [Example 205, 1-[7-(7H-Pyrrolo[2,3-d]pyrimidin-4-yl)-4,7-diaza-spiro[2.5]oct-4-yl]-2-thiophen-2-yl-ethane-1,2-d lone]: the EC50 is under 100 nM in assay [1] (setting [13]), under 100 nM in assay [2] (setting [14]), 100 to 500 nM in assay [3] (setting [15]) and under 100 nM in assay [4] (setting [16]).
On to `N#Cc1ccccc1CC(=O)N1CCN(c2ncnc3[nH]ccc23)CC12CC2` [Example 113, 2-{2-Oxo-2-[7-(7H-pyrrolo[2,3-d]pyrimidin-4-yl)-4,7-diaza-spiro[2.5]oct-4-yl]-ethyl}-benzonitrile], for which the EC50 is 100 to 500 nM in assay [1] (setting [13]), 100 to 500 nM in assay [2] (setting [14]), over 500 nM in assay [3] (setting [15]) and under 100 nM in assay [4] (setting [16]).
As for `NS(=O)(=O)c1ccc(NCCC(=O)N2CCN(c3ncnc4[nH]ccc34)CC23CC3)cc1` [Example 453, 4-{3-Oxo-3-[7-(7H-pyrrolo[2,3-d]pyrimidin-4-yl)-4,7-diaza-spiro[2.5]oct-4-yl]-propylamino}-benzenesulfonamide], the EC50 in assay [1] (setting [5]) is 100 to 500 nM; in assay [2] (setting [6]), under 100 nM; in assay [3] (setting [7]) it was over 500 nM; in assay [4] (setting [8]), under 100 nM.
Regarding `O=C(c1cc2c(s1)CCC2)N1C2CCC1CN(c1ncnc3[nH]ccc13)C2` [Example 139, (5,6-Dihydro-4H-cyclopenta[b]thiophen-2-yl)-[3-(7H-pyrrolo[2,3-d]pyrimidin-4-yl)-3,8-diaza-bicyclo[3.2.1]oct-8-yl]-methanone], the half-maximal effective concentration (EC50) in assay [1] (setting [13]) is 100 to 500 nM; in assay [2] (setting [14]) it was under 100 nM; in assay [3] (setting [15]) it was over 500 nM; in assay [4] (setting [16]), under 100 nM.
For `Cc1nccnc1C(=O)N1CCN(c2ncnc3[nH]ccc23)CC12CC2` [Example 417, (3-Methyl-pyrazin-2-yl)-[7-(7H-pyrrolo[2,3-d]pyrimidin-4-yl)-4,7-diaza-spiro[2.5]oct-4-yl]-methanone], the EC50 in assay [1] (setting [9]), in assay [2] (setting [10]), in assay [3] (setting [11]) and in assay [4] (setting [12]) was under 100 nM throughout.
On to `O=C(c1cnccn1)N1CCN(c2ccnc3[nH]ccc23)CC12CC2` [Example 225, Pyrazin-2-yl-[7-(1H-pyrrolo[2,3-b]pyridin-4-yl)-4,7-diaza-spiro[2.5]oct-4-yl]-methanone], for which the EC50 in assay [1] (setting [9]) was over 500 nM; in assay [2] (setting [10]), 100 to 500 nM; in assay [3] (setting [11]) it was over 500 nM; in assay [4] (setting [12]), under 100 nM.
Consider `Cc1cc(S(N)(=O)=O)ccc1C(=O)N1[C@@H]2CC[C@H]1CN(c1ncnc3[nH]ccc13)C2` [Example 391, 3-Methyl-4-[3-(7H-pyrrolo[2,3-d]pyrimidin-4-yl)-3,8-diaza-bicyclo[3.2.1]octane-8-carbonyl]-benzenesulfonamide], for which the EC50 is 100 to 500 nM in assay [1] (setting [9]), 100 to 500 nM in assay [2] (setting [10]), over 500 nM in assay [3] (setting [11]) and 100 to 500 nM in assay [4] (setting [12]).
For `N#Cc1ccc(C(=O)N2CCN(c3ncnc4[nH]ccc34)CC23CC3)cc1` [Example 15, 4-[7-(7H-Pyrrolo[2,3-d]pyrimidin-4-yl)-4,7-diazaspiro[2.5]octane-4-carbonyl]benzonitrile], the concentration for a half-maximal effect (EC50) in assay [1] (setting [13]) is 100 to 500 nM; in assay [2] (setting [14]), under 100 nM; in assay [3] (setting [15]), 100 to 500 nM; in assay [4] (setting [16]), under 100 nM.
Consider `NS(=O)(=O)c1ccc(C(=O)N2CCN(c3ncnc4[nH]ccc34)CC23CC3)cc1Cl` [Example 103, 2-Chloro-4-[7-(7H-pyrrolo[2,3-d]pyrimidin-4-yl)-4,7-diaza-spiro[2.5]octane-4-carbonyl]-benzenesulfonamide], for which the EC50 in assay [1] (setting [13]), in assay [2] (setting [14]), in assay [3] (setting [15]) and in assay [4] (setting [16]) was under 100 nM throughout.
With `Cc1cc(S(N)(=O)=O)ccc1C(=O)N1CCN(c2ncnc3[nH]ccc23)CC12CC2` [Example 379, 3-Methyl-4-[7-(7H-pyrrolo[2,3-d]pyrimidin-4-yl)-4,7-diaza-spiro[2.5]octane-4-carbonyl]-benzenesulfonamide], the concentration for a half-maximal effect (EC50) was under 100 nM in assay [1] (setting [9]), under 100 nM in assay [2] (setting [10]), 100 to 500 nM in assay [3] (setting [11]) and under 100 nM in assay [4] (setting [12]).
On to `O=C(c1ccc(OC(F)(F)F)cc1)N1[C@@H]2CC[C@@H]1CN(c1ncnc3[nH]ccc13)C2` [Example 251, [3-(7H-Pyrrolo[2,3-d]pyrimidin-4-yl)-3,8-diaza-bicyclo[3.2.1]oct-8-yl]-(4-trifluoromethoxy-phenyl)-methanone], for which the EC50 in assay [1] (setting [9]) is 100 to 500 nM; in assay [2] (setting [10]), under 100 nM; in assay [3] (setting [11]), over 500 nM; in assay [4] (setting [12]), 100 to 500 nM.
`NS(=O)(=O)c1ccc(CCC(=O)N2CCN(c3ncnc4[nH]ccc34)CC23CC3)cc1` [Example 383, 4-{3-Oxo-3-[7-(7H-pyrrolo[2,3-d]pyrimidin-4-yl)-4,7-diaza-spiro[2.5]oct-4-yl]-propyl}-benzenesulfonamide]: the 50% effective concentration (EC50) in assay [1] (setting [9]), in assay [2] (setting [10]), in assay [3] (setting [11]) and in assay [4] (setting [12]) was under 100 nM each time.
Regarding `Cc1ccsc1C(=O)N1[C@@H]2CC[C@@H]1CN(c1ncnc3[nH]ccc13)C2` [Example 243, (3-Methyl-thiophen-2-yl)-[3-(7H-pyrrolo[2,3-d]pyrimidin-4-yl)-3,8-diaza-bicyclo[3.2.1]oct-8-yl]-methanone], the EC50 is 100 to 500 nM in assay [1] (setting [9]), 100 to 500 nM in assay [2] (setting [10]), over 500 nM in assay [3] (setting [11]) and under 100 nM in assay [4] (setting [12]).
`N#Cc1ccc(CC(=O)N2CCN(c3nc(NC(=O)c4ccno4)nc4[nH]ccc34)CC23CC3)cc1` [Example 99, Isoxazole-5-carboxylic acid (4-{4-[2-(4-cyano-phenyl)-acetyl]-4,7-diaza-spiro[2.5]oct-7-yl}-7H-pyrrolo[2,3-d]pyrimidin-2-yl)-amide]: the half-maximal effective concentration (EC50) in assay [1] (setting [13]) was over 500 nM; in assay [2] (setting [14]), 100 to 500 nM; in assay [3] (setting [15]), over 500 nM; in assay [4] (setting [16]), under 100 nM.
In the case of `N#CCc1cccc(CC(=O)N2CCN(c3ncnc4[nH]cc(Cl)c34)CC23CC3)c1` [Example 318, (3-{2-[7-(5-Chloro-7H-pyrrolo[2,3-d]pyrimidin-4-yl)-4,7-diaza-spiro[2.5]oct-4-yl]-2-oxo-ethyl}-phenyl)-acetonitrile], the EC50 in assay [1] (setting [9]), in assay [2] (setting [10]), in assay [3] (setting [11]) and in assay [4] (setting [12]) was over 500 nM each time.
Regarding `COc1cnc2[nH]ccc2c1N1CCN(C(=O)c2cnccn2)C2(CC2)C1` [Example 285, [7-(5-Methoxy-1H-pyrrolo[2,3-b]pyridin-4-yl)-4,7-diaza-spiro[2.5]oct-4-yl]-pyrazin-2-yl-methanone], the EC50 is 100 to 500 nM in assay [1] (setting [9]), over 500 nM in assay [2] (setting [10]), over 500 nM in assay [3] (setting [11]) and 100 to 500 nM in assay [4] (setting [12]).
